Holding throughout (format): cell-based
Test [1] deals with T1, hGIPR (Homo sapiens, UniProt P48546).
T1 construct: expressed in transfected cells
T1 sequence (P48546 22-466): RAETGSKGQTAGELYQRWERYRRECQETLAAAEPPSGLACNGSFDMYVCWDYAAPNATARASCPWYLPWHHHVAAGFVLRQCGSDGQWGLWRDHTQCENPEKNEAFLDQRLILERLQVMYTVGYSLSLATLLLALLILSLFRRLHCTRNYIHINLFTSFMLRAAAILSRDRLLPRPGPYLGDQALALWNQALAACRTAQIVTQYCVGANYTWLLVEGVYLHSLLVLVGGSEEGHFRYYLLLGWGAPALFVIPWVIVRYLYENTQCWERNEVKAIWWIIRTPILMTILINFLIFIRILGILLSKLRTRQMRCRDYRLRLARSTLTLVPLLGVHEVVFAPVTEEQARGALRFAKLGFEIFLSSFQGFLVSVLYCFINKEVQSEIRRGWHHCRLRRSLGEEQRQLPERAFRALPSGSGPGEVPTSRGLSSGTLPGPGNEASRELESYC
In words: Functional cAMP formation (HTRF) in HEK-293 clonal cells expressing hGIPR, 0.1% bovine casein, without or with 1.0% human serum albumin. Conditions: for Emax: percent of maximal response to GIP(1-42)NH2; for EC50: hGIPR EC50, nM (SEM, n), cAMP, 37° C., 0.1% bovine casein (no human serum albumin), geometric mean. In a few lines: (§1)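 Cells were stimulated with peptide for 30 min at 37° C, then intracellular cAMP was measured by competitive HTRF (665/620 nm ratio) and converted to nM using a cAMP standard curve. Relative EC50 and Emax came from four-parameter logistic fits of percent maximal response against peptide concentration.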

The target in test [2] is T2, hGCGR (Homo sapiens, UniProt P47871).
T2 construct: expressed in transfected cells
The test can be described thus: Functional cAMP formation (HTRF) in HEK-293 clonal cells expressing hGCGR, 0.1% bovine casein, without or with 1.0% human serum albumin. Conditions: hGCGR EC50, nM (SEM, n), 37° C. In short, it runs like this: as §1

The target in test [3] is hGLP-1R (Homo sapiens, UniProt P43220). In words: Functional cAMP formation (HTRF) in HEK-293 clonal cells expressing hGLP-1R, 0.1% bovine casein, without or with 1.0% human serum albumin. The following applies: for Emax: percent of maximal response to GLP-1(7-36)NH2. More on the design: expressed in transfected cells. In a few lines: as §1
The mark [4] stands for this setting: cAMP, 0.1% bovine casein (no human serum albumin), geometric mean.

Structures are written as SMILES. Where two headings read alike, the source gives them in different places.

Results on two molecules are retold here after patent US20230265151A1, “GIP/GLP1 CO-AGONIST COMPOUNDS” (priority 2020, published 2023).

hGLP-1R, sequence (P43220 24-463): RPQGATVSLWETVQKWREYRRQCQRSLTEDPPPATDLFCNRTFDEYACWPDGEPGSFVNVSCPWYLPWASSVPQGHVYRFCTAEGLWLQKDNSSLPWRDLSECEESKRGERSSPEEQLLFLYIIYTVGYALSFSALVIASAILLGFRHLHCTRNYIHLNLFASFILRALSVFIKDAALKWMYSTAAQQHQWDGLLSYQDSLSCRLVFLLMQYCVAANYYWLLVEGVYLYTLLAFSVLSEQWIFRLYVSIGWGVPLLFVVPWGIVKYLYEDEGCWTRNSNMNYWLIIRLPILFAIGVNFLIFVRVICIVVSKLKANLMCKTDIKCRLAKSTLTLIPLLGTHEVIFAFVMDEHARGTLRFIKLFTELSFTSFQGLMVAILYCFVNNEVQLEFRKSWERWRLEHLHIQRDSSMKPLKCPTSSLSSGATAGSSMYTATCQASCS
T2 sequence (P47871 26-477): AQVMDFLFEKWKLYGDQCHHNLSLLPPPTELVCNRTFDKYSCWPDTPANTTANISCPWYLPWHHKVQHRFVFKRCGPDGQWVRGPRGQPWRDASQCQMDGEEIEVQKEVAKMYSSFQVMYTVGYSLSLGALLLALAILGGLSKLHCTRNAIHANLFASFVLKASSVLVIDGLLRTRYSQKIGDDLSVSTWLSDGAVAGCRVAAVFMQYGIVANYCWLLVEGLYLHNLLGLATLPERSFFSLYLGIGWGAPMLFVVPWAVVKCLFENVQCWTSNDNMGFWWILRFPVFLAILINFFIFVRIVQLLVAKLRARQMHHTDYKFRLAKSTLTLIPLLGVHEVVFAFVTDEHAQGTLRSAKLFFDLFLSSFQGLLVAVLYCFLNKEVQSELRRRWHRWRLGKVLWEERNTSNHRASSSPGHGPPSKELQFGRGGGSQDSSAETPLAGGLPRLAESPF

What is called Emax is the greatest response seen or fitted, relative to the assay's reference. What is called EC50 is the concentration at which the effect is half-maximal. Read a high EC50 as a need for much substance. Turning to `CC[C@H](C)[C@H](NC(=O)[C@H](CC(C)C)NC(=O)[C@](C)(Cc1ccc(O)cc1)NC(=O)[C@@H](CCC(=O)O)NC(=O)[C@@H](NC(=O)[C@H](Cc1ccccc1)NC(=O)[C@H](CCCCNC(=O)COCCOCCNC(=O)CC[C@H](NC(=O)CCCCCCCCCOc1ccc(C(=O)O)cc1)C(=O)O)NC(=O)C(C)(C)NC(=O)[C@H](CCC(N)=O)NC(=O)[C@H](C)NC(=O)[C@H](CCCCNC(=O)COCCOCCNC(=O)CC[C@H](NC(=O)CCCCCCCCCOc1ccc(C(=O)O)cc1)C(=O)O)NC(=O)[C@H](CCCN)NC(=O)[C@H](CC(=O)O)NC(=O)[C@H](CC(C)C)NC(=O)[C@](C)(CC(C)C)NC(=O)[C@@H](NC(=O)C(C)(C)NC(=O)[C@@H](NC(=O)[C@H](CC(=O)O)NC(=O)[C@H](CO)NC(=O)[C@@H](NC(=O)[C@](C)(Cc1ccccc1F)NC(=O)[C@@H](NC(=O)CNC(=O)[C@H](CCC(=O)O)NC(=O)C(C)(C)NC(=O)[C@@H](N)Cc1ccc(O)cc1)[C@@H](C)O)[C@@H](C)O)C(C)C)[C@@H](C)CC)[C@@H](C)CC)C(=O)N[C@@H](CCC(=O)O)C(=O)NCC(=O)NCC(=O)N1CCC[C@H]1C(=O)N[C@@H](CO)C(=O)N[C@@H](CO)C(=O)NCC(=O)N[C@@H](C)C(=O)N1CCC[C@H]1C(=O)N1CCC[C@H]1C(=O)N1CCC[C@H]1C(=O)N[C@@H](CO)C(N)=O` [Example 378], the Emax in test [1] (HEK293, read-out: hGIPR Emax, % ± SEM, cAMP, 37° C., 0.1% bovine casein and 1.0% human serum albumin) is 81.2%; in test [1] (HEK293, read-out: hGIPR Emax, % ± SEM, cAMP, 37° C., 0.1% bovine casein, arithmetic mean), 93.5%; in test [3] (HEK293, read-out: hGLP-1R Emax, % ± SEM, cAMP, 37° C., 0.1% bovine casein, arithmetic mean) it was 98.9%. Further, the EC50 was 0.0132 nM in test [1]; > 9950 nM in test [2] (setting [4]); > 9950 nM in test [2] (cAMP, 0.1% bovine casein and 1.0% human serum albumin, geometric mean (SEM, n)); 0.166 nM in test [3] (hGLP-1R EC50, nM (SEM, n), cAMP, 37° C., 0.1% bovine casein (no human serum albumin), geometric mean).

For `CC[C@H](C)[C@H](NC(=O)[C@H](CC(C)C)NC(=O)[C@](C)(Cc1ccc(O)cc1)NC(=O)[C@@H](CCC(=O)O)NC(=O)[C@@H](NC(=O)[C@H](Cc1ccccc1)NC(=O)[C@H](CCC(=O)O)NC(=O)C(C)(C)NC(=O)[C@H](CCC(N)=O)NC(=O)[C@H](C)NC(=O)[C@H](CCCCNC(=O)COCCOCCNC(=O)COCCOCCNC(=O)CC[C@H](NC(=O)CCCCCCCCCOc1ccc(C(=O)O)cc1)C(=O)O)NC(=O)[C@H](CCCN)NC(=O)[C@H](CC(=O)O)NC(=O)[C@H](CC(C)C)NC(=O)[C@](C)(CC(C)C)NC(=O)[C@@H](NC(=O)[C@H](CO)NC(=O)[C@H](Cc1ccncc1)NC(=O)[C@H](CC(=O)O)NC(=O)[C@H](CO)NC(=O)[C@@H](NC(=O)[C@](C)(Cc1ccccc1F)NC(=O)[C@@H](NC(=O)CNC(=O)[C@H](CCC(=O)O)NC(=O)C(C)(C)NC(=O)[C@@H](N)Cc1ccc(O)cc1)[C@@H](C)O)[C@@H](C)O)[C@@H](C)CC)[C@@H](C)CC)C(=O)N[C@@H](CCC(=O)O)C(=O)NCC(=O)NCC(=O)N1CCC[C@H]1C(=O)N[C@@H](CO)C(=O)N[C@@H](CO)C(=O)NCC(=O)N[C@@H](C)C(=O)N1CCC[C@H]1C(=O)N1CCC[C@H]1C(=O)N1CCC[C@H]1C(=O)N[C@@H](CO)C(=O)N[C@@H](CCCCNC(=O)COCCOCCNC(=O)COCCOCCNC(=O)CC[C@H](NC(=O)CCCCCCCCCOc1ccc(C(=O)O)cc1)C(=O)O)C(N)=O` [Example 273], the Emax in test [1] (HEK293, read-out: hGIPR Emax, % ± SEM, 0.1% bovine casein and 1.0% human serum albumin, 37° C.) was 88.4%; in test [3] (HEK293, read-out: hGLP-1R Emax, % ± SEM, 0.1% bovine casein and 1.0% human serum albumin, 37° C.) it was 90.5%. Also, the EC50 in test [1] was 0.0166 nM; in test [2] (0.1% bovine casein and 1.0% human serum albumin, geometric mean), > 9950 nM; in test [2] (setting [4]) it was > 9950 nM.
